# Tests used:
# Cln3^Δex7-8 mice [1] = experiment: Corpus callosum volume by MRI; format: in vivo, mouse; conditions: 12-month-old Cln3^Δex7-8 mice, trehalose; untreated 12.96±0.43 mm^3
# Method: Mice were transcardially perfused before imaging. The head was removed and then the skin, muscle, ears, nose tip and lower jaw were removed to expose the skull. The head was fixed overnight in 4% paraformaldehyde at 4° C. The head was then transferred to 40 mLs of 0.01% sodium azide in PBS and rocked for 7 days at 4° C. The head was transferred to a solution of 5 mM gadopentetate dimeglumine (Bayer HealthCare Pharmaceuticals Inc., Wayne, N.J.) and 0.01% sodium azide in PBS and rocked for 25-35 days at 4° C. Incubation with gadopentetate dimeglumine improved the signal-to-noise ratio. Before imaging, the head was equilibrated to room temperature for 6-8 h.
# A total of 48 scans per mouse were acquired on a 9.4 T Bruker Avance Biospec Spectrometer, 21-cm bore horizontal scanner with 35 mm volume resonator (Bruker BioSpin, Billerica, Mass.) with Paravision 5.0 software (Bruker Biospin, Billerica, Mass.). The three-dimensional DTI scan parameters are as follows: spin echo, b-value=0 and 1,000 s/mm^2, 20 diffusion directions with one non-diffusion weighted image, TR=500 ms, TE=14.8 ms, FOV=1.7×1.2×2.4 cm or 2.0×1.4×3.2 cm, matrix=128×96×96, NEX=1, δ=3 ms, Δ=7 ms. The acquisition time was ˜15 h.
# The MRI images were first processed on DTI studio to extrapolate the fractional anisotropy. […]
# Cln3^Δex7-8 mice [2] = experiment: TEM counting of fingerprint profiles; format: in vivo, mouse
# Method: Mice were anaesthetized and perfused intracardially with saline solution followed by 2% formaldehyde+2.5% glutaraldehyde in 0.1M sodium cacodylate buffer (pH 7.4). Brains were removed and small pieces of cerebellum and cortex were collected, and further postfixed in 2% formaldehyde|o2.5% glutaraldehyde, 0.1M sodium cacodylate buffer (pH 7.4) for 24 h. One-hundred micrometer coronal sections were cut with a vibratome and fixed in 1% OsO4 in 0.1M cacodylate for 1 h, stained with uranyl acetate dehydrated and embedded in Eponate 812. Ultrathin sections at 60 nm were obtained on an RMC MT6000 ultramicrotome and examined with a Hitachi H7500 transmission electron microscope. Images were captured using a Gatan US1000 high-resolution digital camera and Digital Micrograph software (v1.82.366).
# ERK = ERK inhibition check; format: cell-based
# Method: Brain tissue and cultured cells were collected and lysed in RIPA buffer (50 mM Tris-HCl, ph 7.4, 1% NP40, 0.5% Na-deoxycholate, 0.1% SDS, 150 mM NaCl, 2 mM EDTA and 50 mM NaF) including a cocktail of protease (Roche) and phosphatase (SIGMA) inhibitors. Protein concentrations were measured with the bicinchoninic acid protein assay kit (Pierce, Rockford, Ill.), using bovine serum albumin as standard. Lysates were separated via SDS-polyacrylamide gel electrophoresis (PAGE) and then transferred to nitrocellulose membranes. Blots were incubated in blocking buffer (5%, w/v, dried skimmed milk in Tris-buffered saline, pH 7.4 and 0.2% Tween 20, TBST) followed by overnight incubation with appropriate antibodies diluted in blocking buffer (5% dry milk). Western blot images were acquired by LAS 4000 (GE Healthcare) and quantified using ImageJ. Images have been cropped for presentation.
# Cln3^Δex7-8 mice [3] = experiment: Astrocytosis, GFAP immunohistochemistry; format: in vivo, mouse; conditions: for decrease of GFAP immunoreactivity: 12 months of age
# Method: Brains were subsequently removed and postfixed overnight. Before sectioning, the brains were cryoprotected in a solution containing 30% sucrose in Tris-buffered saline (TBS: 50 mM Tris, pH 7.6). Consecutive […] floating coronal sections were collected in 96-well plates. Series of sections were then stained with primary antisera against CD68 or GFAP, followed by either rabbit anti-rat (VectorLab) and swine anti-rabbit (DAKO) secondary antibodies, and immunoreactivity detected with Vectastain ABC (avidin-biotin) kit (Vector) and diaminobenzidine as a chromogen.
# Thirty non-overlapping images were captured, on three consecutive sections, through each region of interest. All RGB images were captured via a live video camera (JVC, 3CCD, KY-F55B), mounted onto a Zeiss Axioplan microscope using a ×40 objective and saved as JPEGs. All parameters including lamp intensity, video camera set-up and calibration were maintained constant throughout image capturing. Images were subsequently analysed using ImageJ analysis software (NIH), using an appropriate threshold that selected the foreground immunoreactivity above background. This threshold was then applied as a constant to all subsequent images analysed per batch of animals and reagent used to determine the specific area of immunoreactivity for each antigen in each region. This analysis was performed blind to genotype. Data were plotted graphically as the mean percentage area of immunoreactivity per field±s.e.m. for each region.
# TFEB = TFEB nuclear translocation in WT and Tsc2-/- MEFs; format: cell-based, mouse; conditions: Tsc2-/- MEFs (constitutively active mTORC1) and control MEFs
# Method: (b) Quantification of TFEB subcellular localization (C, cytoplasmic; N, nuclear) after 24 h of trehalose treatment (Tre) or in untreated cells (UT). Scale bars in a, b is 40 μm. (c) Immunoblot analyses show expression levels of substrates downstream of mTORC1. Wild-type (WT) and TSC2 null MEF cells were treated with trehalose (Tre; 100 mM) for 24 h or left untreated. As controls, cells were treated with Torin 1 (300 nM) or rapamycin (300 nM) for 2 h before extracting the lysates. Phospho- and total S6K1 (P-S6K1 and T-S6K1), phospho- and total S6 (P-S6 and T-S6) and phospho- and total 4E-BP1 (P-4E-BP1 and T-4E-BP1) were detected as readouts of mTORC1 activity. […] (f) HeLa cells co-transfected with TFEB-3×FLAG and mTOR or (g) TFEB-3×FLAG and constitutively active mTOR (CA-mTOR, […]) constructs were treated with trehalose (100 mM for 24 h) or left untreated before immunofluorescent labelling of TFEB (red) and mTOR (green) with FLAG and mTOR antibodies, respectively. Scale bar, 10 μm (d-g). Data represent means±s.e.m.
# For immunofluorescence assay, cells were grown on coverslips in 24-well plates. After the treatment, cells were washed with PBS and fixed with methanol for 10 min. Cells were then blocked with blocking reagent (0.1% saponin, 10% bovine serum in PBS) for 1 h and incubated with appropriate primary antibody(s) (1:100) for 3 h at room temperature. […]
compound,measurement,setting,value
"OC[C@H]1O[C@H](O[C@H]2O[C@H](CO)[C@@H](O)[C@H](O)[C@H]2O)[C@H](O)[C@@H](O)[C@@H]1O [trehalose, a-D-glucopyranosyl a-D-glucopyranoside]",corpus callosum volume,Cln3^Δex7-8 mice [1],15.02±0.33 mm^3
same,number of fingerprint profiles,"Cln3^Δex7-8 mice [2]; Purkinje cells, P=0.047",significantly reduced the number of fingerprint profiles
same,number of fingerprint profiles,"Cln3^Δex7-8 mice [2]; cortical neurons, P=0.017",significantly reduced the number of fingerprint profiles
same,ERK inhibition,ERK,does not inhibit ERK
same,progressive neuroinflammation (GFAP and CD68 immunoreactivity),"Cln3^Δex7-8 mice [3]; S1BF and VPM/VPL, 7 and 12 months of age",mitigated
same,decrease of GFAP immunoreactivity,Cln3^Δex7-8 mice [3]; S1BF region,43%
same,decrease of GFAP immunoreactivity,Cln3^Δex7-8 mice [3]; VPM/VPL region,67%
same,TFEB nuclear translocation,TFEB,induce TFEB nuclear translocation even with an active mTORC1

# — US10512656B2, “Compositions and methods for the treatment of lysosomal storage disorders and disorders characterized by lysosomal dysfunction” (Baylor College of Medicine, priority 2016, dated 2019)
